In US8841321B2, “Quinoline derivatives as antibacterial agents” (Janssen Pharmaceutica NV, priority 2005, dated 2014):
Values after ≈ are worked out from the molar mass of the structure shown.

Columns and labels:
Experiment in all cases: Microtitre plate assay, IC90 determination
Assay type in all cases: cell-based
[1] = system: STA 29213 (Staphylococcus aureus (ATCC29213)); settings: for IC90 (μg/ml) STA 29213: Staphylococcus aureus (ATCC29213)
Procedure, shortened: (§1)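 Growth-inhibition endpoint: resazurin added 3 h after inoculation, plates incubated overnight, fluorescence at 530/590 nm after 24 h at 37 °C. Inocula of roughly 10–60 CFU per well in Mueller-Hinton medium; compounds titrated five-fold. IC90 reported as μg/ml.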

[2] = system: SPN 6305 (Streptococcus pneumoniae (ATCC6305)); settings: for IC90 (μg/ml) SPN 6305: Streptococcus pneumoniae (ATCC6305)
Procedure, shortened: as §1

[3] = system: EFA 29212 (Enterococcus faecalis (ATCC29212)); settings: for IC90 (μg/ml) EFA 29212: Enterococcus faecalis (ATCC29212); for IC90: Enterococcus faecalis, ATCC29212, Enterococcus faecalis (ATCC29212), read-out: IC90 (μg/ml) EFA 29212
[4] = system: LMO 49594 (Listeria monocytogenes (ATCC49594)); settings: for IC90: Listeria monocytogenes, ATCC49594, Listeria monocytogenes (ATCC49594), read-out: IC90 (μg/ml) LMO 49594
[5] = system: SPY 8668 (Streptococcus pyogens (ATCC8668)); settings: for IC90 (μg/ml) SPY 8668: Streptococcus pyogens (ATCC8668)
[6] = system: PAE 27853 (Pseudomonas aeruginosa (ATCC27853)); settings: for IC90 (μg/ml) PAE 27853: Pseudomonas aeruginosa (ATCC27853)
[7] = system: STA RMETH (methicilline resistant Staphylococcus aureus (MRSA), a clinical isolate from the University of Antwerp); settings: for IC90: Staphylococcus aureus, MRSA, read-out: IC90 (μg/ml) STA RMETH
[8] = system: BSU 43639 (Bacillus subtilis (ATCC43639)); settings: for IC90: Bacillus subtilis, ATCC43639, Bacillus subtilis (ATCC43639), read-out: IC90 (μg/ml) BSU 43639

| IC90 (μg/ml) STA 29213 [1] [µg/mL] | IC90 (μg/ml) SPN 6305 [2] [µg/mL] | IC90 (μg/ml) EFA 29212 [3] [µg/mL] | IC90 (μg/ml) LMO 49594 ([4]; Listeria monocytogenes (ATCC49594)) [µg/mL] | IC90 (μg/ml) SPY 8668 [5] [µg/mL] | IC90 (μg/ml) PAE 27853 [6] [µg/mL] | IC90 (μg/ml) BSU 43639 ([8]; Bacillus subtilis (ATCC43639)) [µg/mL] | IC90 [4] [µg/mL] | IC90 [8] [µg/mL] | IC90 ([1]; Staphylococcus aureus, ATCC29213, Staphylococcus aureus (ATCC29213), read-out: IC90 (μg/ml) STA 29213) [µg/mL] | IC90 ([2]; Streptococcus pneumoniae, ATCC6305, Streptococcus pneumoniae (ATCC6305), read-out: IC90 (μg/ml) SPN 6305) [µg/mL] | IC90 [3] [µg/mL] | IC90 [7] [µg/mL] | IC90 ([5]; Streptococcus, ATCC8668, Streptococcus pyogens (ATCC8668), read-out: IC90 (μg/ml) SPY 8668) [µg/mL] | IC90 ([6]; Pseudomonas aeruginosa, ATCC27853, Pseudomonas aeruginosa (ATCC27853), read-out: IC90 (μg/ml) PAE 27853) [µg/mL] | Structure (SMILES) | IC90 (μg/ml) STA RMETH [7] [µg/mL] |
| --- | --- | --- | --- | --- | --- | --- | --- | --- | --- | --- | --- | --- | --- | --- | --- | --- |
| 4.3 (≈ 7.01 µM) | 4.9 (≈ 7.99 µM) | 9.7 (≈ 15.8 µM) | 9.7 (≈ 15.8 µM) | 1.9 (≈ 3.1 µM) | 9.7 (≈ 15.8 µM) | 9.7 (≈ 15.8 µM) | – | – | – | – | – | – | – | – | COc1ccc2cc(C(O)(CCCCN(C)C)C(c3ccccc3)c3cc4cc(Br)ccc4nc3OC)ccc2c1 (single isomer, unassigned) [Compound 6] | 9.7 (≈ 15.8 µM) |
| 43.7 (≈ 79.5 µM) | 21.9 (≈ 39.8 µM) | 43.7 (≈ 79.5 µM) | – | 8.7 (≈ 15.8 µM) | 43.7 (≈ 79.5 µM) | – | 43.7 (≈ 79.5 µM) | 43.7 (≈ 79.5 µM) | – | – | – | – | – | – | CSc1nc2ccc(Br)cc2cc1C(c1ccccc1)C(O)(CCCCN(C)C)c1ccccc1 (stereo not drawn) [Compound 2] | 43.7 (≈ 79.5 µM) |
| – | – | – | – | 3.8 (≈ 7.11 µM) | 8.5 (≈ 15.9 µM) | – | – | – | 2.1 (≈ 3.93 µM) | 1.7 (≈ 3.18 µM) | 8.5 (≈ 15.9 µM) | 10.7 (≈ 20 µM) | – | – | COc1ccc2cc(C(O)(CCCCN(C)C)C(c3ccccc3)c3cc4ccccc4nc3OC)ccc2c1 (stereo not drawn) [Compound 35] | – |
| 2.4 (≈ 3.62 µM) | 10.5 (≈ 15.8 µM) | 2.1 (≈ 3.17 µM) | – | 10.5 (≈ 15.8 µM) | 5.3 (≈ 8 µM) | – | – | – | – | – | – | – | – | – | COc1nc2ccc(Br)cc2cc1C(c1ccccc1)C(O)(CCCCN(C)C)c1ccc2cc(Br)ccc2c1 (stereo not drawn) [Compound 8] | 2.6 (≈ 3.92 µM) |
| 1.9 (≈ 3.17 µM) | 1.9 (≈ 3.17 µM) | – | – | – | – | – | 9.5 (≈ 15.8 µM) | 9.5 (≈ 15.8 µM) | – | – | 9.5 (≈ 15.8 µM) | 9.5 (≈ 15.8 µM) | 1.9 (≈ 3.17 µM) | 1.9 (≈ 3.17 µM) | CSc1nc2ccc(Br)cc2cc1C(c1ccccc1)C(O)(CCCCN(C)C)c1ccc2ccccc2c1 (single isomer, unassigned) [Compound 4] | – |
| 1.9 (≈ 3.26 µM) | 1.9 (≈ 3.26 µM) | 1.9 (≈ 3.26 µM) | – | 1.9 (≈ 3.26 µM) | 1.9 (≈ 3.26 µM) | – | – | – | – | – | – | 11.6 (≈ 19.9 µM) | – | – | COc1nc2cc(Br)ccc2cc1C(c1ccccc1)C(O)(CCCCN(C)C)c1ccc2ccccc2c1 (stereo not drawn) [Compound 32] | – |
| 4.1 (≈ 7.03 µM) | 9.3 (≈ 15.9 µM) | 46.3 (≈ 79.3 µM) | – | 46.3 (≈ 79.3 µM) | 52.0 (≈ 89.1 µM) | – | – | – | – | – | – | – | – | – | COc1nc2cc(Br)ccc2cc1C(c1ccccc1)C(O)(CCCCN(C)C)c1ccc2ccccc2c1 (stereo not drawn) [Compound 33] | 5.8 (≈ 9.94 µM) |

| Structure (SMILES) | IC90 (μg/ml) STA 29213 [1] [µg/mL] | IC90 (μg/ml) SPN 6305 [2] [µg/mL] | IC90 (μg/ml) EFA 29212 [3] [µg/mL] | IC90 (μg/ml) LMO 49594 ([4]; Listeria monocytogenes (ATCC49594)) [µg/mL] | IC90 (μg/ml) SPY 8668 [5] [µg/mL] | IC90 (μg/ml) PAE 27853 [6] [µg/mL] | IC90 (μg/ml) BSU 43639 ([8]; Bacillus subtilis (ATCC43639)) [µg/mL] | IC90 [4] [µg/mL] | IC90 [8] [µg/mL] | IC90 ([1]; Staphylococcus aureus, ATCC29213, Staphylococcus aureus (ATCC29213), read-out: IC90 (μg/ml) STA 29213) [µg/mL] | IC90 ([2]; Streptococcus pneumoniae, ATCC6305, Streptococcus pneumoniae (ATCC6305), read-out: IC90 (μg/ml) SPN 6305) [µg/mL] | IC90 [3] [µg/mL] | IC90 [7] [µg/mL] | IC90 ([5]; Streptococcus, ATCC8668, Streptococcus pyogens (ATCC8668), read-out: IC90 (μg/ml) SPY 8668) [µg/mL] | IC90 ([6]; Pseudomonas aeruginosa, ATCC27853, Pseudomonas aeruginosa (ATCC27853), read-out: IC90 (μg/ml) PAE 27853) [µg/mL] | IC90 (μg/ml) STA RMETH [7] [µg/mL] |
| --- | --- | --- | --- | --- | --- | --- | --- | --- | --- | --- | --- | --- | --- | --- | --- | --- |
| COc1nc2ccc(Br)cc2cc1C(c1ccccc1)C(O)(CCCCN1CCN(C)CC1)CCc1ccccc1 (single isomer, unassigned) [Compound 137] | 1.95 (≈ 3.16 µM) | 1.95 (≈ 3.16 µM) | 9.77 (≈ 15.8 µM) | – | 1.95 (≈ 3.16 µM) | 9.77 (≈ 15.8 µM) | – | – | – | – | – | – | – | – | – | 12.3 (≈ 19.9 µM) |
| COc1nc2ccc(Br)cc2cc1C(c1ccccc1)C(O)(CCCCN1CCN(C)CC1)c1ccc2ccccc2c1 (single isomer, unassigned) [Compound 112] | 2.02 (≈ 3.16 µM) | 2.54 (≈ 3.98 µM) | 2.02 (≈ 3.16 µM) | – | 2.02 (≈ 3.16 µM) | 2.02 (≈ 3.16 µM) | – | – | – | – | – | – | – | – | – | 2.54 (≈ 3.98 µM) |
| CNCCCCC(O)(c1ccc2ccccc2c1)C(c1ccccc1)c1cc2cc(Br)ccc2nc1OC (racemic) [Compound 75] | 2.02 (≈ 3.55 µM) | 0.9 (≈ 1.58 µM) | 4.03 (≈ 7.08 µM) | – | 1.8 (≈ 3.16 µM) | 2.02 (≈ 3.55 µM) | – | – | – | – | – | – | – | – | – | 11.36 (≈ 19.9 µM) |
| COc1nc2ccc(Br)cc2cc1C(c1ccccc1)C(O)(CCCCN1CCN(C)CC1)CCc1ccc(C)cc1 (single isomer, unassigned) [Compound 141] | 1.99 (≈ 3.16 µM) | 1.99 (≈ 3.16 µM) | 4.46 (≈ 7.07 µM) | – | 4.46 (≈ 7.07 µM) | 4.46 (≈ 7.07 µM) | – | – | – | – | – | – | – | – | – | 14.12 (≈ 22.4 µM) |
